Test results from publication PMC5404542, “In Vitro and In Vivo Antifungal Profile of a Novel and Long-Acting Inhaled Azole, PC945, on Aspergillus fumigatus Infection” (Antimicrobial Agents and Chemotherapy, 2017).
In brackets after ≈: the same amount, converted by molar mass. Several values for one entry are separate records, joined by “and”; a condition that tells them apart may be missing. Equal values may be shown once. Read-outs that look alike come from different tables or passages of the source.

How the values were obtained:
A. fumigatus ATCC 204305 = test: MIC with and without BSA supplementation, quality control strain; conditions: Aspergillus fumigatus
Experimental: (§1) Conidia were added across the plate to a final concentration of 1 × 10^5 ml^−1. […] Determination of antifungal activity against 50 A. fumigatus clinical isolates from St. Louis Hospital (Paris, France) was performed with 96-well plates, using the modified EUCAST method in the presence of 0.5% BSA as described above. Antifungal susceptibility testing of 46 A. fumigatus isolates (obtained from the NW England Mycology Reference Centre) was performed by Evotec UK Ltd. (Manchester, United Kingdom) according to EUCAST guidelines.

A. fumigatus (NCPF2010) = test: A. fumigatus cell-based ergosterol assay; parameters: species or system Aspergillus fumigatus; conditions: Aspergillus fumigatus; NCPF2010, 24 h, normalized by crystal violet; read-out: IC50, inhibition of ergosterol production
Experimental: After incubation for 24 h at 35°C, medium was removed from all wells and replaced with reaction buffer (Amplex red cholesterol assay kit; Thermo Fisher) and Amplex red solution. Plates were incubated for 30 min at 37°C, protected from light, after which fluorescence was quantified using a spectrophotometer. Medium was removed from all wells and replaced with crystal violet solution (1% [vol/vol]), and plates were incubated at room temperature on a shaker for 30 min. Plates were washed three times with phosphate-buffered saline (PBS), and sodium dodecyl sulfate solution (0.1% [vol/vol]) was added across the plate to lyse the cells. After incubation at room temperature for 1 h, the absorbance was measured by determining the OD590 by use of a spectrophotometer.

[1] = system: Aspergillus carbonarius (ATCC 8740); test: MIC, CLSI; format: cell-based; conditions: ATCC8740
[2] = system: Aspergillus flavus (ATCC 204304); test: MIC, CLSI; format: cell-based; conditions: ATCC204304
[3] = system: Aspergillus flavus (AFL8, NRRC3357); test: MIC, EUCAST; format: cell-based
[4] = system: Aspergillus niger (ATCC 1015); test: MIC, EUCAST; format: cell-based; conditions: ATCC1015
[5] = system: Aspergillus terreus (AT49, AT7130); test: MIC, EUCAST; format: cell-based
[6] = system: Penicillium chrysogenum (ATCC 9480); test: MIC, CLSI; format: cell-based; conditions: ATCC9480, 1 strain
[7] = system: Penicillium citrinum (ATCC 9849); test: MIC, CLSI; format: cell-based; conditions: ATCC9849, 1 strain
[8] = system: Trichophyton rubrum (ATCC 10218); test: MIC, CLSI; format: cell-based; conditions: ATCC10218, 1 strain
[9] = system: Aureobasidium pullulans (ATCC 9348); test: MIC, CLSI; format: cell-based; conditions: ATCC9348, 1 strain
[10] = system: Cladosporium argillaceum (ATCC 38013); test: MIC, CLSI; format: cell-based; conditions: Rhizocladosporium argillaceum, ATCC38013, 1 strain
[11] = system: Candida albicans (20240.047, ATCC 10231); test: MIC, CLSI; format: cell-based; conditions: ATCC10231, read-out: MIC (the MIC given is the MIC50)
[12] = system: AR Candida albicans (20183.073, 20186.025); test: MIC, CLSI; format: cell-based; conditions: read-out: MIC (the MIC given is the MIC50)
[13] = system: Candida glabrata (ATCC 36583, R363); test: MIC, CLSI; format: cell-based; conditions: Nakaseomyces glabratus, ATCC36583, read-out: MIC (the MIC given is the MIC50)
[14] = system: Candida krusei (ATCC 6258); test: MIC, CLSI; format: cell-based; conditions: Pichia kudriavzevii, ATCC6258
[15] = system: Chaetomium globosum (ATCC 44699); test: MIC, CLSI; format: cell-based; conditions: ATCC44699, 1 strain
[16] = system: Gibberella zeae (Fusarium graminearum) (ATCC 16106); test: microbe, parasite or virus in culture; format: cell-based; conditions: ATCC16106
[17] = system: Cryptococcus neoformans (ATCC 24067); test: MIC, CLSI; format: cell-based; conditions: Cryptococcus neoformans, ATCC24067
[18] = system: Lichtheimia corymbifera (ATCC 7909); test: MIC, CLSI; format: cell-based; conditions: ATCC7909, 1 strain
[19] = system: Mucor circinelloides (ATCC 8542); test: MIC, CLSI; format: cell-based; conditions: ATCC8542, 1 strain
[20] = system: Rhizomucor pusillus (ATCC 16458); test: MIC, CLSI; format: cell-based; conditions: ATCC16458, 1 strain
[21] = system: Rhizopus oryzae (ATCC 11145); test: MIC, CLSI; format: cell-based
[22] = system: BEAS2B cells infected with A. fumigatus; test: Persistence of action on bronchial epithelial cells (galactomannan in supernatant); format: cell-based, Aspergillus fumigatus; conditions: for IC50: Aspergillus fumigatus, BEAS-2B
Experimental: The persistence of action of test agents was evaluated on immortalized bronchial epithelial cells (BEAS2B cells). […] Test and reference articles or undiluted DMSO (as vehicle) (0.5 μl/well) was added to the appropriate wells of the washout plate to give a final concentration of 0.5% DMSO. The plate was incubated for exactly 1 h at 37°C and 5% CO2. After the incubation time had elapsed, all wells on the washout plate were aspirated, and growth medium (100 μl/well) was added across the plate. After 24 h of incubation at 37°C, test and reference articles or undiluted DMSO (as vehicle) (0.5 μl/well) was added to the appropriate wells of the nonwashout plate to give a final concentration of 0.5% DMSO. The plate was incubated for exactly 1 h at 37°C and 5% CO2, after which A. fumigatus conidia were added across both plates to a final concentration of 1 × 10^3/well.

[23] = Precipitation in EUCAST medium; format: physicochemical
[24] = system: A. fumigatus hyphae (NCPF2010)
Experimental: (§2) The persistence of action of test agents was calculated for A. fumigatus hyphae (NCPF2010). […] The plates were incubated for exactly 20 min at 35°C and 5% CO2. After the incubation time had elapsed, all wells on the designated washout plate were aspirated, and growth medium (100 μl/well) was added across the plate. […] Resazurin (0.04%; diluted in growth medium) was added to all wells of both nonwashout and washout plates (5 μl/well) to give a final concentration of 0.002% resazurin. The plates were incubated at 35°C and 5% CO2 for 16 h. […] The percent inhibition for each well was calculated, and the IC50 was calculated from the concentration-response curve generated for each test compound by use of a four-parameter logistic equation (Dotmatics, Bishops Stortford, United Kingdom).

[25] = system: 96 clinically isolated A. fumigatus strains; test: MIC against 96 clinically isolated strains (EUCAST, visual)
Experimental: as §1

[26] = system: A. fumigatus hyphae (NCPF2010); test: Persistence of action on A. fumigatus hyphae (resazurin-based microtiter assay); conditions: Aspergillus fumigatus, NCPF2010, 16 h, read-out: Hyphae IC50, No washout
Experimental: as §2

## C[C@@H]1[C@H](O)[C@@H](C)/C=C/C=C/C=C/C=C/C=C/C=C/C=C/[C@H](O[C@@H]2O[C@H](C)[C@@H](O)[C@H](N)[C@@H]2O)C[C@@H]2O[C@](O)(C[C@@H](O)C[C@@H](O)[C@H](O)CC[C@@H](O)C[C@@H](O)CC(=O)O[C@H]1C)C[C@H](O)[C@H]2C(=O)O [Amphotericin B, amphotericin B]
A. fumigatus ATCC 204305; ATCC204305, with BSA
  MIC: 2 mg/L (≈ 2.16 µM)
A. fumigatus ATCC 204305; ATCC204305, without BSA
  MIC: 1 mg/L (≈ 1.08 µM)

## C[C@@H](c1ncncc1F)[C@](O)(Cn1cncn1)c1ccc(F)cc1F [Voriconazole, voriconazole]
A. fumigatus (NCPF2010)
  IC50: 0.067 µg/mL and 190 nM
[1]
  MIC: 0.5 mg/L (≈ 1.43 µM)
[2]
  MIC: 2 mg/L (≈ 5.73 µM)
[3]
  MIC: 0.63 mg/L (≈ 1.8 µM)
[4]
  MIC: 1 mg/L (≈ 2.86 µM)
[5]
  MIC: 1 mg/L (≈ 2.86 µM)
[6]
  MIC: 2 mg/L (≈ 5.73 µM)
[7]
  MIC: > 8 mg/L
[8]
  MIC: 0.063 mg/L (≈ 0.18 µM)
[9]
  MIC: > 8 mg/L
[10]
  MIC: 0.5 mg/L (≈ 1.43 µM)
[11]
  MIC50: 0.14 mg/L (≈ 0.401 µM)
[12]
  MIC50: 10 mg/L (≈ 28.6 µM)
[13]
  MIC50: 8.13 mg/L (≈ 23.3 µM)
[14]
  MIC: 0.25 mg/L (≈ 0.716 µM)
[15]
  MIC: 1 mg/L (≈ 2.86 µM)
[16]
  MIC: > 8 mg/L
[17]
  MIC: 0.016 mg/L (≈ 0.0458 µM)
[18]
  MIC: > 8 mg/L
[19]
  MIC: > 8 mg/L
[20]
  MIC: > 8 mg/L
[21]; 1 strain
  MIC: >8 mg/L
[21]; Rhizopus arrhizus, ATCC11145, 1 strain, read-out: MIC
  MIC: > 8 mg/L
[22]; 1 h contact, 24-h washout prior to infection, GM readout
  BEAS2B cells IC50, Washout: ineffective
[22]; 1 h contact before infection, GM readout after 24 h, read-out: BEAS2B cells IC50, No washout
  IC50: 0.054 mg/L (≈ 0.155 µM)
[22]; 1 h contact, 24-h washout prior to infection, GM readout, read-out: BEAS2B cells IC50, Washout
  IC50: > 1 mg/L
[23]
  concentration at which compound precipitated in EUCAST medium: did not
[24]
  IC50: > 1 mg/L
[25]; 96 clinical isolates, determined visually
  MIC, Range: 0.064 to 4 mg/L
[25]; Aspergillus fumigatus
  MIC50: 0.5 mg/L (≈ 1.43 µM)
  MIC90: 1 mg/L (≈ 2.86 µM)
[25]; Aspergillus fumigatus, read-out: MIC, Geometric mean
  MIC: 0.42 mg/L (≈ 1.2 µM)
[25]; Aspergillus fumigatus, read-out: MIC, Mode
  MIC: 0.5 mg/L (≈ 1.43 µM)
A. fumigatus ATCC 204305; ATCC204305, with BSA
  MIC: 1 to 2 mg/L (≈ 2.86 to 5.73 µM)
A. fumigatus ATCC 204305; ATCC204305, without BSA
  MIC: 2 mg/L (≈ 5.73 µM)
[26]
  IC50: 0.011 mg/L (≈ 0.0315 µM)

## CCC(C)n1ncn(-c2ccc(N3CCN(c4ccc(OCC5COC(Cn6cncn6)(c6ccc(Cl)cc6Cl)O5)cc4)CC3)cc2)c1=O (stereo not shown) [Itraconazole, itraconazole]
A. fumigatus ATCC 204305; ATCC204305, with BSA
  MIC: 0.125 mg/L (≈ 0.177 µM)
A. fumigatus ATCC 204305; ATCC204305, without BSA
  MIC: 0.25 mg/L (≈ 0.354 µM)
